Values quoted from earlier work as cited in patent publication US8618022B2, “Process for preparing an aqueous suspension of an organic pesticide compound” (priority 2009, dated 2013).
≈ marks a conversion by molar mass, not a printed value.

Settings: for water solubility: deionised water at 20° C.

Row | Compound | water solubility | solubility in water (at 20° C.) [µg/mL]
1 | Cc1c(COC(=O)[C@@H]2[C@H](/C=C(\Cl)C(F)(F)F)C2(C)C)cccc1-c1ccccc1 (racemic) [bifenthrin] | 0.1 mg/L (≈ 0.236 µM) | –
2 | ClC1=C(Cl)C2(Cl)C3C4C=CC(C4)C3C1(Cl)C2(Cl)Cl (stereo not shown) [aldrin] | <<1 mg/l | –
3 | CCCCN(CC)c1c([N+](=O)[O-])cc(C(F)(F)F)cc1[N+](=O)[O-] [benfluralin] | <1 mg/L | –
4 | COP(=S)(OC)Oc1cc(Cl)c(Br)cc1Cl [bromophos] | 40 mg/L (≈ 109 µM) | –
5 | CC(C)OC(=O)C(O)(c1ccc(Br)cc1)c1ccc(Br)cc1 [bromopropylate] | <5 mg/L | –
6 | CCOP(=S)(OCC)ON=C(C#N)c1ccccc1Cl [chlorphoxim] | 2 mg/L (≈ 6.01 µM) | –
7 | CCOP(=S)(OCC)Oc1nc(Cl)c(Cl)cc1Cl [chlorpyriphos] | 2 mg/L (≈ 5.7 µM) | –
8 | CC1(C)CCC(Cc2ccc(Cl)cc2)C1(O)Cn1cncn1 (stereo not shown) [metconazol] | 1400 mg/L (≈ 4380 µM) | –
9 | CC(C)OC(=O)c1cc(C(=O)OC(C)C)cc([N+](=O)[O-])c1 [nitrothal-isopropyl] | 0.4 mg/L (≈ 1.35 µM) | –
10 | COP(=S)(OC)SCN1C(=O)c2ccccc2C1=O [phosmet] | 25 mg/L (≈ 78.8 µM) | –
11 | O=C(Nc1ccc(F)cc1)c1cccc(Oc2cccc(C(F)(F)F)c2)n1 [picolinafen] | <0.1 mg/L | –
12 | CO/C=C(/C(=O)OC)c1ccccc1COc1cccc(C(F)(F)F)n1 [picoxystrobin] | 3.1 mg/L (≈ 8.44 µM) | –
13 | COC(=O)N(OC)c1ccccc1COc1ccn(-c2ccc(Cl)cc2)n1 [pyraclostrobin, methyl {2-[1-(4-chlorophenyl)pyrazol-3-yloxymethyl]phenyl}-(methoxy)carbamate] | – | < 2
